Laboratory results published in the supplement of paper PMC11061612.

How the values were obtained:
Test in all cases: combination Emax (second highest fraction inhibited in the dose matrix, 72 h); higher = more inhibition; extreme values may be limits of the assay
[1] = test system: PC-3 (Prostate Carcinoma)
Summary of the method: (§1)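 Bliss excess equals the observed combination effect minus the expected value EA + EB − EA·EB, where EA and EB are the effects of each agent alone. Combination Emax is the second-highest inhibition within the matrix. Inhibition was scaled from CellTiter-Glo 2.0 luminescence, with 0 set by vehicle wells and 1 by blank wells, after 72 hours of two-drug dosing of cells plated in 1536-well plates.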

[2] = test system: NCI-H661 (Non-Small Cell Lung Carcinoma)
Summary of the method: as §1

[3] = test system: COR-L279 (Small Cell Lung Carcinoma)
Summary of the method: as §1

[4] = test system: SK-GT-2 (Gastric Carcinoma)
Summary of the method: as §1

[5] = test system: MOLM-13 (Acute Myeloid Leukemia)
Summary of the method: as §1

M059J (Glioblastoma) = test system: M059J (Glioblastoma)
Summary of the method: as §1

[6] = test system: NCCIT (Other Solid Carcinomas)
Summary of the method: as §1

NCI-H2731 (Mesothelioma) = test system: NCI-H2731 (Mesothelioma)
Summary of the method: as §1

[7] = test system: MN-60 (B-Lymphoblastic Leukemia)
Summary of the method: as §1

[8] = test system: CW-2 (Colorectal Carcinoma)
Summary of the method: as §1

G-361 (Melanoma) = test system: G-361 (Melanoma)
Summary of the method: as §1

[9] = test system: SU-DHL-5 (B-Cell Non-Hodgkin's Lymphoma)
Summary of the method: as §1

[10] = test system: MOG-G-CCM (Low Grade Glioma)
Summary of the method: as §1

[11] = test system: KMS-12-BM (Plasma Cell Myeloma)
Summary of the method: as §1

[12] = test system: NCI-H929 (Plasma Cell Myeloma)
Summary of the method: as §1

[13] = test system: NCI-H3122 (Lung Adenocarcinoma)
Summary of the method: as §1

[14] = test system: DMS-114 (Small Cell Lung Carcinoma)
Summary of the method: as §1

[15] = test system: NCI-H526 (Small Cell Lung Carcinoma)
Summary of the method: as §1

[16] = test system: ST486 (Burkitt's Lymphoma)
Summary of the method: as §1

[17] = test system: DAN-G (Pancreatic Carcinoma)
Summary of the method: as §1

Row | SMILES | combination Emax [1] | combination Emax [2] | combination Emax [3] | combination Emax [4] | combination Emax [5] | combination Emax (M059J (Glioblastoma)) | combination Emax [6] | combination Emax (NCI-H2731 (Mesothelioma)) | combination Emax [7] | combination Emax [8] | combination Emax (G-361 (Melanoma)) | combination Emax [9] | combination Emax [10] | combination Emax [11] | combination Emax [12] | combination Emax [13] | combination Emax [14] | combination Emax [15] | combination Emax [16] | combination Emax [17]
1 | Cn1cnc2c(F)c(Nc3ccc(Br)cc3Cl)c(C(=O)NOCCO)cc21 [Selumetinib] + C[C@@H]1COCCN1C2=NC(=NC(=C2)C3(CC3)[S@](=N)(=O)C)C4=C5C=CNC5=NC=C4 [AZD6738] (first compound max 10 µM, 7x7, partner max 10 µM) | 0.39 | 0.396 | 0.626 | 0.186 | 1 | 0.291 | 0.649 | 0.173 | 0.56 | 0.501 | 0.848 | 1 | 0.502 | 0.865 | 0.882 | 0.734 | 0.34 | 0.427 | 0.877 | 0.675
2 | CC(=O)Nc1cccc(-n2c(=O)n(C3CC3)c(=O)c3c(Nc4ccc(I)cc4F)n(C)c(=O)c(C)c32)c1 [Trametinib] + Cc1nc(-c2cn3c(n2)-c2ccc(-c4cnn(C(C)(C)C(N)=O)c4)cc2OCC3)n(C(C)C)n1 [Taselisib] (first compound max 1 µM, 7x7, partner max 10 µM) | 0.503 | 0.457 | 0.661 | 0.723 | 1 | 0.713 | 0.73 | 0.498 | 0.42 | 0.565 | 0.996 | 1 | 0.548 | 0.636 | 1 | 0.99 | 0.668 | 0.304 | 0.775 | 0.999
3 | CC1(C)CCC(CN2CCN(c3ccc(C(=O)NS(=O)(=O)c4ccc(NCC5CCOCC5)c([N+](=O)[O-])c4)c(Oc4cnc5[nH]ccc5c4)c3)CC2)=C(c2ccc(Cl)cc2)C1 [Venetoclax] + C1CN(CCC1(C(=O)N[C@@H](CCO)C2=CC=C(C=C2)Cl)N)C3=NC=NC4=C3C=CN4 [Capivasertib] (first compound max 1 µM, 7x7, partner max 3 µM) | 0.365 | 0.192 | 0.418 | 0.162 | 1 | 0.396 | 0.398 | 0.27 | 0.293 | 0.163 | 0.159 | 0.915 | 0.348 | 1 | 0.997 | 0.362 | 0.24 | 0.769 | 0.759 | 0.195
4 | CC1(C)CCC(CN2CCN(c3ccc(C(=O)NS(=O)(=O)c4ccc(NCC5CCOCC5)c([N+](=O)[O-])c4)c(Oc4cnc5[nH]ccc5c4)c3)CC2)=C(c2ccc(Cl)cc2)C1 [Venetoclax] + C=CCn1c(=O)c2cnc(Nc3ccc(N4CCN(C)CC4)cc3)nc2n1-c1cccc(C(C)(C)O)n1 [AZD1775] (first compound max 1 µM, partner max 1 µM) | 0.29 | 0.63 | 0.746 | 0.597 | 1 | 0.713 | 0.907 | 0.286 | 0.305 | 0.311 | 0.589 | 0.986 | 0.688 | 1 | 0.659 | 0.734 | 0.437 | 0.835 | 0.978 | 0.747
5 | CC1(C)CCC(CN2CCN(c3ccc(C(=O)NS(=O)(=O)c4ccc(NCC5CCOCC5)c([N+](=O)[O-])c4)c(Oc4cnc5[nH]ccc5c4)c3)CC2)=C(c2ccc(Cl)cc2)C1 [Venetoclax] + CCN(CCO)CCCOc1ccc2c(Nc3cc(CC(=O)Nc4cccc(F)c4)[nH]n3)ncnc2c1 [AZD2811] (first compound max 1 µM, 7x7, partner max 1 µM) | 0.245 | 0.143 | 0.833 | 0.155 | 1 | 0.375 | 0.282 | 0.211 | 0.297 | 0.177 | 0.285 | 0.778 | 0.485 | 1 | 0.391 | 0.33 | 0.207 | 0.928 | 0.925 | 0.21
6 | CC1(C)CCC(CN2CCN(c3ccc(C(=O)NS(=O)(=O)c4ccc(NCC5CCOCC5)c([N+](=O)[O-])c4)c(Oc4cnc5[nH]ccc5c4)c3)CC2)=C(c2ccc(Cl)cc2)C1 [Venetoclax] + CN(C)CCCOc1ccc(-c2ccc3ncc4c(c3c2)n(C2CCOCC2)c(=O)n4C)cn1 [AZD0156] (first compound max 1 µM, 7x7, partner max 1 µM) | 0.21 | 0.122 | 0.522 | 0.155 | 0.898 | 0.169 | 0.275 | 0.145 | 0.285 | 0.174 | 0.115 | 0.455 | 0.385 | 1 | 0.691 | 0.264 | 0.245 | 0.856 | 0.77 | 0.264
7 | CC1(C)CCC(CN2CCN(c3ccc(C(=O)NS(=O)(=O)c4ccc(NCC5CCOCC5)c([N+](=O)[O-])c4)c(Oc4cnc5[nH]ccc5c4)c3)CC2)=C(c2ccc(Cl)cc2)C1 [Venetoclax] + COc1cc(Nc2ncc3c(n2)-c2ccc(Cl)cc2C(c2c(F)cccc2OC)=NC3)ccc1C(=O)O [Alisertib] (first compound max 1 µM, 7x7, partner max 10 µM) | 0.321 | 0.26 | 0.82 | 0.241 | 1 | 0.636 | 0.51 | 0.364 | 0.291 | 0.16 | 0.415 | 0.803 | 0.806 | 1 | 0.662 | 0.336 | 0.555 | 0.852 | 0.909 | 0.425
8 | CC1(C)CCC(CN2CCN(c3ccc(C(=O)NS(=O)(=O)c4ccc(NCC5CCOCC5)c([N+](=O)[O-])c4)c(Oc4cnc5[nH]ccc5c4)c3)CC2)=C(c2ccc(Cl)cc2)C1 [Venetoclax] + C[C@@H]1COCCN1C2=NC(=NC(=C2)C3(CC3)[S@](=N)(=O)C)C4=C5C=CNC5=NC=C4 [AZD6738] (first compound max 1 µM, 7x7, partner max 10 µM) | 0.517 | 0.654 | 0.833 | 0.331 | 1 | 0.526 | 0.607 | 0.307 | 0.456 | 0.403 | 0.599 | 1 | 0.538 | 1 | 0.78 | 0.652 | 0.564 | 0.889 | 0.861 | 0.719
9 | CC1(C)CCC(CN2CCN(c3ccc(C(=O)NS(=O)(=O)c4ccc(NCC5CCOCC5)c([N+](=O)[O-])c4)c(Oc4cnc5[nH]ccc5c4)c3)CC2)=C(c2ccc(Cl)cc2)C1 [Venetoclax] + C[C@@H](Nc1cc(F)cc(F)c1)c1cc(C(=O)N(C)C)cc2c(=O)cc(N3CCOCC3)oc12 [AZD8186] (first compound max 1 µM, 7x7, partner max 3 µM) | 0.312 | 0.164 | 0.394 | 0.0218 | 1 | 0.306 | 0.177 | 0.107 | 0.418 | 0.0925 | 0.248 | 0.984 | 0.398 | 1 | 0.811 | 0.134 | 0.113 | 0.799 | 0.695 | 0.0841
10 | CC1(C)CCC(CN2CCN(c3ccc(C(=O)NS(=O)(=O)c4ccc(NCC5CCOCC5)c([N+](=O)[O-])c4)c(Oc4cnc5[nH]ccc5c4)c3)CC2)=C(c2ccc(Cl)cc2)C1 [Venetoclax] + Cc1cc2ncnn2cc1Nc1ncc2c(n1)n(C1CCOCC1)c(=O)n2C [AZD7648] (first compound max 1 µM, 7x7, partner max 10 µM) | 0.263 | 0.16 | 0.372 | 0.155 | 0.956 | 0.279 | 0.289 | 0.157 | 0.299 | 0.163 | 0.152 | 0.687 | 0.303 | 1 | 0.812 | 0.387 | 0.315 | 0.657 | 0.69 | 0.363
11 | CC1(C)CCC(CN2CCN(c3ccc(C(=O)NS(=O)(=O)c4ccc(NCC5CCOCC5)c([N+](=O)[O-])c4)c(Oc4cnc5[nH]ccc5c4)c3)CC2)=C(c2ccc(Cl)cc2)C1 [Venetoclax] + Cn1cnc2c(F)c(Nc3ccc(Br)cc3Cl)c(C(=O)NOCCO)cc21 [Selumetinib] (first compound max 1 µM, 7x7, partner max 3 µM) | 0.152 | 0.0912 | 0.213 | 0.0541 | 1 | 0.203 | 0.112 | 0.0907 | 0.347 | 0.191 | 0.702 | 0.339 | 0.0923 | 1 | 0.386 | 0.387 | 0.0989 | 0.625 | 0.754 | 0.233
